Experiment [1] deals with MRSA ATCC 43,300. The experiment is described as follows: Checkerboard dilution assay. It counts as cell-based, S. aureus. Further details: MICalone / MICcombined: unit not given beside the values. The conditions noted are these: for MICalone: drug alone, checkerboard; for MICalone / MICcombined: MRSA ATCC 43,300; for Fold change: MIC combined vs alone.
In experiment [2] the test system is MRSA ATCC 43,300. The experiment is described as follows: Time-killing assay of the synergistical combinations. The note with it: 1/4×MIC of PVB and 1/4×MIC of the antibiotic. It counts as cell-based, S. aureus.
The subject of experiment [3] is MRSA and S. epidermidis persister cells. Description: Persister cells killing assay. It counts as cell-based, S. aureus and S. epidermidis. The note with it: 64 µg/mL.
[4] abbreviates: group 19: PVB combined with KANA.
The mark [5] stands for this setting: group 16: PVB combined with CRO.
[6] abbreviates: group 20: PVB combined with TOB.
The mark [7] stands for this setting: group 15: PVB combined with OXA.
Setting [8] is: group 13: PVB combined with CEZ.
Where [9] appears, read: group 18: PVB combined with GEN.
Setting [10] is: group 14: PVB combined with CEF.
Where [11] appears, read: group 17: PVB combined with AMK.
Where [12] appears, read: group 12: PVB combined with AMP.
Setting [13] is: group 11: PVB combined with CAZ.
[14] abbreviates: group 21: PVB combined with SPC.

Regarding `NC[C@H]1O[C@H](O[C@H]2[C@H](O)[C@@H](O[C@H]3O[C@H](CO)[C@@H](O)[C@H](N)[C@H]3O)[C@H](N)C[C@@H]2N)[C@H](O)[C@@H](O)[C@@H]1O` [KANA, kanamycin], in the experiment on MRSA ATCC 43,300 [1], the MICalone worked out at 256. Moreover, in the experiment with MRSA ATCC 43,300 [1] (group 19: PVB + KANA), the FICI came out at 4.5 and the Outcome result is “antagonism (an antagonism effect was defined as FICI > 4)”. In addition, in the experiment with MRSA ATCC 43,300 [1] (setting [4]), the Fold change is recorded as 4 and the MICcombined was determined as 1024.
Consider `CO/N=C(\C(=O)N[C@@H]1C(=O)N2C(C(=O)O)=C(CSc3nc(=O)c(=O)[nH]n3C)CS[C@H]12)c1csc(N)n1` [CRO, ceftriaxone], for which the MICalone in the experiment on MRSA ATCC 43,300 [1] stood at 32. The FICI in the experiment on MRSA ATCC 43,300 [1] (group 16: PVB + CRO) was 0.5625. Further, in the experiment on MRSA ATCC 43,300 [1] (setting [5]), the Fold change was determined as 0.0625 and the MICcombined came out at 2.
For `CC[C@H]1OC(=O)[C@H](C)[C@@H](O[C@H]2C[C@@](C)(OC)[C@@H](O)[C@H](C)O2)[C@H](C)[C@@H](O[C@@H]2O[C@H](C)C[C@H](N(C)C)[C@H]2O)[C@](C)(O)C[C@@H](C)C(=O)[C@H](C)[C@@H](O)[C@]1(C)O` [E, erythromycin], the FICI with MRSA ATCC 43,300 [1] (group 3: PVB + E) is listed as 2.
Consider `NC[C@H]1O[C@H](O[C@H]2[C@H](O)[C@@H](O[C@H]3O[C@H](CO)[C@@H](O)[C@H](N)[C@H]3O)[C@H](N)C[C@@H]2N)[C@H](N)C[C@@H]1O` [TOB, tobramycin], for which the MICalone with MRSA ATCC 43,300 [1] was determined as 64. The FICI in the experiment with MRSA ATCC 43,300 [1] (group 20: PVB + TOB) was 5. For the same compound, in the experiment with MRSA ATCC 43,300 [1] (setting [6]), the Fold change turned out to be 4 and the MICcombined is 256.
Turning to `CCCCCCCCCC(=O)N[C@@H](Cc1c[nH]c2ccccc12)C(=O)N[C@H](CC(N)=O)C(=O)N[C@@H](CC(=O)O)C(=O)N[C@@H]1C(=O)NCC(=O)N[C@@H](CCCN)C(=O)N[C@@H](CC(=O)O)C(=O)N[C@H](C)C(=O)N[C@@H](CC(=O)O)C(=O)NCC(=O)N[C@H](CO)C(=O)N[C@@H]([C@H](C)CC(=O)O)C(=O)N[C@@H](CC(=O)c2ccccc2N)C(=O)O[C@@H]1C` [DAP, daptomycin], in the experiment on MRSA ATCC 43,300 [1], the MICalone stood at 0.25. Also, in the experiment with MRSA ATCC 43,300 [1] (group 6: PVB + DAP), the FICI is recorded as 1. In the experiment with MRSA ATCC 43,300 [1] (group 6: PVB combined with DAP), the Fold change turned out to be 0.5 and the MICcombined worked out at 0.125.
In the case of `C[C@H]1COc2c(N3CCN(C)CC3)c(F)cc3c(=O)c(C(=O)O)cn1c23` [LEV, levofloxacin], the MICalone in the experiment with MRSA ATCC 43,300 [1] was 0.125. The FICI in the experiment on MRSA ATCC 43,300 [1] (group 5: PVB + LEV) is reported as 2. Further, in the experiment with MRSA ATCC 43,300 [1] (group 5: PVB combined with LEV), the Fold change is on record as 1 and the MICcombined is reported as 0.125.
`Cc1onc(-c2ccccc2)c1C(=O)N[C@@H]1C(=O)N2[C@@H]1SC(C)(C)[C@@H]2C(=O)O` [OXA, oxacillin]: the MICalone in the experiment with MRSA ATCC 43,300 [1] came to 16. Further, in the experiment with MRSA ATCC 43,300 [1] (group 15: PVB + OXA), the FICI amounted to 0.25. In the experiment on MRSA ATCC 43,300 [1] (setting [7]), the Fold change is 0.125 and the MICcombined was found to be 2. For the same compound, the “bactericidal activity of combination with PVB (time-killing)” value (from here on “bactericidal activity of combination”) in the experiment on MRSA ATCC 43,300 [2] is recorded as “synergistical bactericidal activity”.
On to `CC(=O)NC[C@H]1CN(c2ccc(N3CCOCC3)c(F)c2)C(=O)O1` [LZD, linezolid], for which the MICalone in the experiment on MRSA ATCC 43,300 [1] amounted to 2. For the same compound, in the experiment with MRSA ATCC 43,300 [1] (group 8: PVB + LZD), the FICI came out at 2. For the same compound, in the experiment on MRSA ATCC 43,300 [1] (group 8: PVB combined with LZD), the Fold change is reported as 1 and the MICcombined stood at 2.
With `Cc1nnc(SCC2=C(C(=O)O)N3C(=O)[C@@H](NC(=O)Cn4cnnn4)[C@H]3SC2)s1` [CEZ, cefazolin], the MICalone in the experiment on MRSA ATCC 43,300 [1] was determined as 16. Further, the FICI in the experiment on MRSA ATCC 43,300 [1] (group 13: PVB + CEZ) is 0.5625. In the experiment with MRSA ATCC 43,300 [1] (setting [8]), the Fold change came to 0.5 and the MICcombined amounted to 8.
With `C[C@@H]1O[C@@H]1P(=O)(O)O` [FOS, fosfomycin], in the experiment on MRSA ATCC 43,300 [1], the MICalone turned out to be 32. Also, in the experiment on MRSA ATCC 43,300 [1] (group 7: PVB + FOS), the FICI is given as 2. Also, in the experiment on MRSA ATCC 43,300 [1] (group 7: PVB combined with FOS), the Fold change was 1 and the MICcombined came to 32.
With `CC[C@H]1OC(=O)[C@H](C)[C@@H](O[C@H]2C[C@@](C)(OC)[C@@H](O)[C@H](C)O2)[C@H](C)[C@@H](O[C@@H]2O[C@H](C)C[C@H](N(C)C)[C@H]2O)[C@](C)(O)C[C@@H](C)CN(C)[C@H](C)[C@@H](O)[C@]1(C)O` [AZI, azithromycin], in the experiment with MRSA ATCC 43,300 [1], the MICalone was > 256. Besides, in the experiment with MRSA ATCC 43,300 [1] (group 4: PVB + AZI), the FICI worked out at 2. Besides, in the experiment on MRSA ATCC 43,300 [1] (group 4: PVB combined with AZI), the Fold change worked out at 1 and the MICcombined is recorded as > 256.
Take gentamycin: in the experiment on MRSA ATCC 43,300 [1], the MICalone came to 16. Besides, in the experiment on MRSA ATCC 43,300 [1] (group 18: PVB + GEN), the FICI stood at 2 and the Outcome result is given as “indifference (an indifference effect was defined as 1 < FICI ≤ 4)”. Also, in the experiment with MRSA ATCC 43,300 [1] (setting [9]), the Fold change is on record as 1 and the MICcombined was 16.
In the case of `CO/N=C(\C(=O)N[C@@H]1C(=O)N2C(C(=O)O)=C(COC(C)=O)CS[C@H]12)c1csc(N)n1` [CEF, cefotaxime], the MICalone with MRSA ATCC 43,300 [1] turned out to be 2. Also, in the experiment on MRSA ATCC 43,300 [1] (setting [10]), the Fold change amounted to 0.25 and the MICcombined was found to be 0.5. Moreover, in the experiment on MRSA ATCC 43,300 [2], the “bactericidal activity of combination” value was “synergistical bactericidal activity”.
Turning to `CN(C)[C@@H]1C(O)=C(C(N)=O)C(=O)[C@@]2(O)C(O)=C3C(=O)c4c(O)cccc4[C@@](C)(O)[C@H]3C[C@@H]12` [TET, tetracycline], in the experiment with MRSA ATCC 43,300 [1], the MICalone was determined as 2. In the experiment with MRSA ATCC 43,300 [1] (group 1: PVB + TET), the FICI is listed as 3. Also, in the experiment with MRSA ATCC 43,300 [1] (group 1: PVB combined with TET), the Fold change turned out to be 1 and the MICcombined was 2.
For penicillin, in the experiment on MRSA ATCC 43,300 [1] (group 10: PVB + P), the FICI came out at 1.5 and the Outcome entry was “indifference (an indifference effect was defined as 1 < FICI ≤ 4)”.
Turning to `C[C@H]1c2cccc(O)c2C(=O)C2=C(O)[C@]3(O)C(=O)C(C(N)=O)=C(O)[C@@H](N(C)C)[C@@H]3[C@@H](O)[C@@H]21` [DOX, doxycycline], in the experiment on MRSA ATCC 43,300 [1], the MICalone stood at 0.25. Moreover, in the experiment on MRSA ATCC 43,300 [1] (group 2: PVB + DOX), the FICI is on record as 2. In the experiment on MRSA ATCC 43,300 [1] (group 2: PVB combined with DOX), the Fold change was found to be 1 and the MICcombined worked out at 0.25.
Take `NCC[C@H](O)C(=O)N[C@@H]1C[C@H](N)[C@@H](O[C@H]2O[C@H](CN)[C@@H](O)[C@H](O)[C@H]2O)[C@H](O)[C@H]1O[C@H]1O[C@H](CO)[C@@H](O)[C@H](N)[C@H]1O` [AMK, amikacin]: in the experiment on MRSA ATCC 43,300 [1], the MICalone was 64. In addition, in the experiment with MRSA ATCC 43,300 [1] (group 17: PVB + AMK), the FICI is > 2 and the Outcome entry is given as “indifference/antagonism”. Moreover, in the experiment on MRSA ATCC 43,300 [1] (setting [11]), the Fold change was > 1 and the MICcombined is reported as > 64.
Regarding `CC1(C)S[C@@H]2[C@H](NC(=O)[C@H](N)c3ccccc3)C(=O)N2[C@H]1C(=O)O` [AMP, ampicillin], the MICalone in the experiment with MRSA ATCC 43,300 [1] was found to be 16. Also, the FICI in the experiment with MRSA ATCC 43,300 [1] (group 12: PVB + AMP) turned out to be 0.5. Besides, in the experiment on MRSA ATCC 43,300 [1] (setting [12]), the Fold change came to 0.25 and the MICcombined worked out at 4. For the same compound, the “bactericidal activity of combination” value in the experiment with MRSA ATCC 43,300 [2] is recorded as “synergistical bactericidal activity”.
Turning to `CC(C)(O/N=C(\C(=O)N[C@@H]1C(=O)N2C(C(=O)[O-])=C(C[n+]3ccccc3)CS[C@H]12)c1csc(N)n1)C(=O)O` [CAZ, ceftazidime], the MICalone in the experiment on MRSA ATCC 43,300 [1] is 32. Further, the FICI in the experiment with MRSA ATCC 43,300 [1] (group 11: PVB + CAZ) is reported as 0.75. Further, in the experiment on MRSA ATCC 43,300 [1] (setting [13]), the Fold change stood at 0.25 and the MICcombined was determined as 8.
Take `CN[C@H](CC(C)C)C(=O)N[C@H]1C(=O)N[C@@H](CC(N)=O)C(=O)N[C@H]2C(=O)N[C@H]3C(=O)N[C@H](C(=O)N[C@H](C(=O)O)c4cc(O)cc(O)c4-c4cc3ccc4O)[C@H](O)c3ccc(c(Cl)c3)Oc3cc2cc(c3O[C@@H]2O[C@H](CO)[C@@H](O)[C@H](O)[C@H]2O[C@H]2C[C@](C)(N)[C@H](O)[C@H](C)O2)Oc2ccc(cc2Cl)[C@H]1O` [VAN, vancomycin]: in the experiment on MRSA ATCC 43,300 [1], the MICalone is 1. In addition, the FICI in the experiment on MRSA ATCC 43,300 [1] (group 9: PVB + VAN) turned out to be 2. In the experiment with MRSA ATCC 43,300 [1] (group 9: PVB combined with VAN), the Fold change was found to be 1 and the MICcombined is 1. Also, in experiment [3], the persister cells killing entry is reported as “resistant”.
On to `CN[C@@H]1[C@H](O)[C@H](NC)[C@H]2O[C@@]3(O)C(=O)C[C@@H](C)O[C@H]3O[C@@H]2[C@H]1O` [SPC, spectinomycin], for which, in the experiment with MRSA ATCC 43,300 [1], the MICalone is recorded as 128. Also, the FICI in the experiment with MRSA ATCC 43,300 [1] (group 21: PVB + SPC) worked out at 2. Also, in the experiment on MRSA ATCC 43,300 [1] (setting [14]), the Fold change was found to be 1 and the MICcombined amounted to 128.

These data come from paper PMC11668715 (AMB Express, 2024).
